Results reported in patent US20150141381A1, “TETRACYCLINE COMPOUNDS HAVING TARGET THERAPEUTIC ACTIVITIES” (Paratek Pharmaceuticals, Inc., priority 2001, published 2015).
Where two headings read alike, the source gives them in different places.

Legend:
S. aureus RN450 = experiment: In Vitro Anti-Bacterial Activity Assay (MIC), gram positive; assay type: cell-based; settings: Staphylococcus aureus, RN450, 18 h
E. coli mL308 225 = experiment: In Vitro Anti-Bacterial Activity Assay (MIC), gram negative; assay type: cell-based; settings: Escherichia coli, ML308225, 18 h
[1] = MIC class, Table 3, read-out: Antibiotic Activity Gram +
[2] = MIC class, Table 3, read-out: Antibiotic Activity Gram −
[3] = gram positive bacteria, read-out: Antibiotic Activity Gram + (MIC)
[4] = gram negative bacteria, read-out: Antibiotic Activity Gram − (MIC)
[5] = MIC class, Table 3 (Continued), read-out: Gram+ activity
[6] = MIC class, Table 3 (Continued), read-out: Gram− activity

SMILES | MIC (S. aureus RN450; [1]) [µg/mL] | MIC (E. coli mL308 225; [2]) [µg/mL] | MIC (S. aureus RN450; [3]) [µg/mL] | MIC (E. coli mL308 225; [4]) [µg/mL] | further results
C[C@H]1c2ccc(NC3CCN(Cc4ccccc4)CC3)c(O)c2C(=O)C2=C(O)[C@]3(O)C(=O)C(C(N)=O)=C(O)[C@@H](N(C)C)[C@@H]3[C@@H](O)[C@@H]21 [JK] | < 4 | < 4 | – | – | –
CN(C)c1cc(NCc2cc(F)cc(F)c2)c(O)c2c1C[C@H]1C[C@H]3[C@H](N(C)C)C(O)=C(C(N)=O)C(=O)[C@@]3(O)C(O)=C1C2=O | – | – | > 4 | > 4 | –
CN(C)c1cc(NC(=S)Nc2ccc([N+](=O)[O-])cc2)c(O)c2c1C[C@H]1C[C@H]3[C@H](N(C)C)C(O)=C(C(N)=O)C(=O)[C@@]3(O)C(O)=C1C2=O [DA] | < 4 | > 4 | – | – | –
Cc1cc(-c2ccccn2)c2c(c1O)C(=O)C1=C(O)[C@]3(O)C(=O)C(C(N)=O)=C(O)[C@@H](N(C)C)[C@@H]3C[C@@H]1C2 | – | – | < 4 | > 4 | –
CN(C)c1cc(CNc2ccccn2)c(O)c2c1C[C@H]1C[C@H]3[C@H](N(C)C)C(O)=C(C(N)=O)C(=O)[C@@]3(O)C(O)=C1C2=O | – | – | < 4 | > 4 | –
CC(C)N1CCC(Nc2ccc3c(c2O)C(=O)C2=C(O)[C@]4(O)C(=O)C(C(N)=O)=C(O)[C@@H](N(C)C)[C@@H]4C[C@@H]2C3)CC1 | – | – | < 4 | > 4 | –
CC(=O)c1cc(C(C)(C)C)c(O)c2c1C[C@H]1C[C@H]3[C@H](N(C)C)C(O)=C(C(N)=O)C(=O)[C@@]3(O)C(O)=C1C2=O | – | – | < 4 | < 4 | –
CN(C)[C@@H]1C(O)=C(C(N)=O)C(=O)[C@@]2(O)C(O)=C3C(=O)c4c(O)ccc(-c5cncc(Br)c5)c4C[C@H]3C[C@@H]12 | – | – | < 4 | < 4 | –
CCc1ccc(O)c2c1C[C@H]1C[C@H]3[C@H](N(C)C)C(O)=C(C(N)=O)C(=O)[C@@]3(O)C(O)=C1C2=O | – | – | – | – | MIC (S. aureus RN450; [5]): < 4 µg/mL; MIC (E. coli mL308 225; [6]): < 4 µg/mL
COc1ccc(CNc2cc(N(C)C)c3c(c2O)C(=O)C2=C(O)[C@]4(O)C(=O)C(C(N)=O)=C(O)[C@@H](N(C)C)[C@@H]4C[C@@H]2C3)cc1O | – | – | > 4 | > 4 | –
CCCCOC1C(C(N)=O)=C(O)[C@@H](N(C)C)[C@@H]2[C@@H](O)[C@H]3C(=C(O)[C@]12O)C(=O)c1c(O)cccc1[C@@H]3C (some centres unmarked) | – | – | > 4 | > 4 | –
CC1c2cccc(O)c2C(=O)C2=C(O)[C@]3(O)C(=O)C(C(N)=O)=C(O)[C@@H](N(C)C)[C@@H]3[C@@H](OC(=O)C3CCCCC3)[C@@H]21 (some centres unmarked) | – | – | – | – | MIC (S. aureus RN450; [5]): < 4 µg/mL; MIC (E. coli mL308 225; [6]): < 4 µg/mL
CON(C)CC(=O)Nc1ccc(-c2ccc(O)c3c2C[C@H]2C[C@H]4[C@@H](N(C)C)C(O)=C(C(N)=O)C(=O)[C@@]4(O)C(O)=C2C3=O)cc1 [PN] | < 4 | > 4 | – | – | –
COc1cccc(C/C=C\c2ccc(O)c3c2C[C@H]2C[C@H]4[C@H](N(C)C)C(O)=C(C(N)=O)C(=O)[C@@]4(O)C(O)=C2C3=O)c1O | – | – | < 4 | < 4 | –
CN(C)/C=N/c1ccc(O)c2c1C[C@H]1C[C@H]3[C@@H](N(C)C)C(O)=C(C(N)=O)C(=O)[C@@]3(O)C(O)=C1C2=O [QC] | < 4 | < 4 | – | – | –
CN(C)[C@@H]1C(O)=C(C(N)=O)C(=O)[C@@]2(O)C(O)=C3C(=O)c4c(O)ccc(CNC(=O)OCC(C)(C)C)c4C[C@H]3C[C@@H]12 [FU] | < 4 | > 4 | – | – | –
CC(NNC(N)=O)c1ccc(O)c2c1C[C@H]1C[C@H]3[C@H](N(C)C)C(O)=C(C(N)=O)C(=O)[C@@]3(O)C(O)=C1C2=O (some centres unmarked) | – | – | < 4 | > 4 | –

SMILES | MIC (S. aureus RN450; [1]) [µg/mL] | MIC (E. coli mL308 225; [2]) [µg/mL] | MIC (S. aureus RN450; [3]) [µg/mL] | MIC (E. coli mL308 225; [4]) [µg/mL] | further results
CN1CCC(NCc2ccc(O)c3c2C[C@H]2C[C@H]4[C@H](N(C)C)C(O)=C(C(N)=O)C(=O)[C@@]4(O)C(O)=C2C3=O)CC1 [KY] | > 4 | > 4 | – | – | –
CN(C)[C@@H]1C(O)=C(C(N)=O)C(=O)[C@@]2(O)C(O)=C3C(=O)c4c(O)ccc(-c5cccc(C=O)c5)c4C[C@H]3C[C@@H]12 [BF] | < 4 | < 4 | – | – | –
CCC(C)CNCc1ccc(O)c2c1C[C@H]1C[C@H]3[C@H](N(C)C)C(O)=C(C(N)=O)C(=O)[C@@]3(O)C(O)=C1C2=O (some centres unmarked) [KE] | < 4 | < 4 | – | – | –
CN(C)[C@@H]1C(O)=C(C(N)=O)C(=O)[C@@]2(O)C(O)=C3C(=O)c4c(O)ccc(-c5cc(F)cc(F)c5)c4C[C@H]3C[C@@H]12 | – | – | < 4 | < 4 | –
C[C@H]1c2c(-c3ccc4c(c3)OCO4)cc(-c3cccc4c3OCO4)c(O)c2C(=O)C2=C(O)[C@]3(O)C(=O)C(C(N)=O)=C(O)[C@@H](N(C)C)[C@@H]3[C@@H](O)[C@@H]21 [HF] | < 4 | > 4 | – | – | –
CN(C)[C@@H]1C(O)=C(C(N)=O)C(=O)[C@@]2(O)C(O)=C3C(=O)c4c(O)ccc(-c5ccc(CO)cc5)c4C[C@H]3C[C@@H]12 | – | – | < 4 | < 4 | –
CN(C)c1cc(NC(=S)Nc2cccc3ccccc23)c(O)c2c1C[C@H]1C[C@H]3[C@H](N(C)C)C(O)=C(C(N)=O)C(=O)[C@@]3(O)C(O)=C1C2=O [CA] | < 4 | > 4 | – | – | –
CN(C)[C@@H]1C(O)=C(C(N)=O)C(=O)[C@@]2(O)C(O)=C3C(=O)c4c(O)ccc(/C=C/c5ccc(Br)cc5)c4C[C@H]3C[C@@H]12 [BL] | < 4 | > 4 | – | – | –
CCc1cc(C(C)=O)c(O)c2c1C[C@H]1C[C@H]3[C@H](N(C)C)C(O)=C(C(N)=O)C(=O)[C@@]3(O)C(O)=C1C2=O [IY] | < 4 | > 4 | – | – | –
CC1c2cccc(O)c2C(=O)C2=C(O)[C@]3(O)C(=O)C(C(N)=O)=C(O)[C@@H](N(C)C)[C@@H]3[C@@H](O)[C@@H]21 (some centres unmarked) | – | – | – | – | MIC (S. aureus RN450; [5]): < 4 µg/mL; MIC (E. coli mL308 225; [6]): > 4 µg/mL
C[C@H]1c2ccc(-c3cc4ccccc4s3)c(O)c2C(=O)C2=C(O)[C@]3(O)C(=O)C(C(N)=O)=C(O)[C@@H](N(C)C)[C@@H]3[C@@H](O)[C@@H]21 | – | – | < 4 | < 4 | –
COc1ccc(CNC(C)C)cc1-c1ccc(O)c2c1C[C@H]1C[C@H]3[C@H](N(C)C)C(O)=C(C(N)=O)C(=O)[C@@]3(O)C(O)=C1C2=O [LR] | < 4 | < 4 | – | – | –
CC(=O)c1ccc(-c2ccc3c(c2O)C(=O)C2=C(O)[C@]4(O)C(=O)C(C(N)=O)=C(O)[C@@H](N(C)C)[C@@H]4[C@@H](O)[C@@H]2[C@H]3C)cc1 | – | – | < 4 | < 4 | –
CC(C)OC(=O)c1cccc(-c2ccc(O)c3c2C[C@H]2C[C@H]4[C@H](N(C)C)C(O)=C(C(N)=O)C(=O)[C@@]4(O)C(O)=C2C3=O)c1 | – | – | < 4 | < 4 | –
CCCCOc1ccc(-c2ccc(N(C)C)cc2)c2c1C(=O)C1=C(O)[C@]3(O)C(=O)C(C(N)=O)=C(O)[C@@H](N(C)C)[C@@H]3C[C@@H]1C2 | – | – | < 4 | > 4 | –
CN(C)[C@@H]1C(O)=C(C(N)=O)C(=O)[C@@]2(O)C(O)=C3C(=O)c4c(ccc(NC5CC(C)(C)NC(C)(C)C5)c4O)C[C@H]3C[C@@H]12 [LF] | < 4 | > 4 | – | – | –
CCNCc1cc(N(C)C)c2c(c1O)C(=O)C1=C(O)[C@]3(O)C(=O)C(C(N)=O)=C(O)[C@@H](N(C)C)[C@@H]3C[C@@H]1C2 | – | – | < 4 | > 4 | –
